Measurements reported in BindingDB's records for patent US11944616 (Institut National De La Sante Et De La Recherche Medicale …, 2024).

Molecular target: Glutamate receptor ionotropic, NMDA 1 (Rattus norvegicus, UniProt P35439)
Experiment: In Vitro Activity Assay
Text: In Vitro Activity: Evaluation of NMDAR Blocking Activity Using Patch-ClampPrevious studies have shown that the NMDAR exists in the peripheral vasculature.All NMDAR subunits were examined by RT-PCR and sequencing in the peripheral endothelium and peripheral vascular smooth muscle cells.

With `CC[N@@+]1(CCO)[C@H]2Cc3ccccc3[C@@]1(C)c1ccccc12` [US11944616, Compound 27] the IC50 was 360 nM.
